From US20250230193A1, “CYCLIC COMPOUND HAVING SELECTIVE KRAS INHIBITORY EFFECT ON HRAS AND NRAS” (CHUGAI SEIYAKU KABUSHIKI KAISHA, priority 2022, published 2025)
*1 amine or outer side, *2 acyl side, *3 side chain or, on linkers, in order; H or OH if unused. Where a SMILES comes first, the peptide text is derived from it. Bridges are numbered along the chain shown (N, C = ends). [ ]: non-standard residue; d: D form. The star is where a group is joined. hPhe(3-Cl-4-CF3) = N[C@@H](CCc1ccc(C(F)(F)F)c(Cl)c1)C(=O)O; X31 = O=C([C@H](Cc1ccc(C(F)(F)F)cc1)N(CC1CC1)[*:1])[*:2]; NPrPhe(4-CF3) = CCCN[C@@H](Cc1ccc(C(F)(F)F)cc1)C(=O)O; NMeGly(cPent) = CN[C@H](C(=O)O)C1CCCC1; Pro(4,4-F2) = O=C(O)[C@@H]1CC(F)(F)CN1; NMeD = CN[C@@H](CC(=O)O)C(=O)O; NMeL = CN[C@@H](CC(C)C)C(=O)O; Morpholide = C1CN(*)CCO1; NMeA = CN[C@@H](C)C(=O)O; Ac5c = NC1(C(=O)O)CCCC1; Aze = O=C(O)[C@@H]1CCN1; Sar = CNCC(=O)O

Assays:
[1] = biological target: GDP-bound NRAS wild-type protein (Homo sapiens, UniProt P01111); test: Binding to NRAS by surface plasmon resonance (SPR), Single Cycle Kinetics; conditions: SPR
Sequence of GDP-bound NRAS wild-type protein (P01111 whole entry): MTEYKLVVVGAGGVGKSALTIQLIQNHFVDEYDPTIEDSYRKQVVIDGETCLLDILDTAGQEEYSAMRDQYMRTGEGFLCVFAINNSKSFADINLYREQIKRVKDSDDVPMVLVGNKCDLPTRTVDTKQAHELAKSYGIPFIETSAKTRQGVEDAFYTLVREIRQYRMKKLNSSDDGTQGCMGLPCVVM

[2] = biological target: GDP-bound HRAS wild-type protein (Homo sapiens, UniProt P01112); test: Binding to HRAS by surface plasmon resonance (SPR), Single Cycle Kinetics; conditions: SPR
Sequence of GDP-bound HRAS wild-type protein (P01112 whole entry): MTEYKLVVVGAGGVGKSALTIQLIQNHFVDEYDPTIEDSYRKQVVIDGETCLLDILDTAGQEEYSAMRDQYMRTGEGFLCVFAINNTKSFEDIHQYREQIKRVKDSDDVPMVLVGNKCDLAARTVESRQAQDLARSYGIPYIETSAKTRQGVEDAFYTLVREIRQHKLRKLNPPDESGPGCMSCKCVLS

[3] = KD ratio, GDP-bound NRAS wild-type vs GDP-bound KRAS wild-type
[4] = KD ratio, GDP-bound HRAS wild-type vs GDP-bound KRAS wild-type
[5] = GDP-bound NRAS wild-type vs GDP-bound KRAS wild-type
[6] = GDP-bound HRAS wild-type vs GDP-bound KRAS wild-type

Structure (SMILES): CC[C@H](C)[C@@H]1NC(=O)[C@H](CC(C)C)N(C)C(=O)C[C@@H](C(=O)N2CCOCC2)N(C)C(=O)[C@H](C2CCCC2)N(C)C(=O)C2(CCCC2)NC(=O)[C@@H]2CCCN2C(=O)[C@H](CCc2ccc(C(F)(F)F)c(Cl)c2)NC(=O)CN(C)C(=O)[C@H](Cc2ccc(C(F)(F)F)cc2)N(CC2CC2)C(=O)[C@@H]2CCN2C(=O)[C@H](C)N(C)C1=O [PP0108] ([NMeL]I[NMeA][Aze][X31][Sar][hPhe(3-Cl-4-CF3)]P[Ac5c][NMeGly(cPent)][NMeD]-Morpholide; lactam N-11)
- NRAS/KRAS (ratio of KD for GDP-bound NRAS wild-type to KD for KRAS) [1]: C (A compound having a KD ratio of 0.1 or more and less than 3 is denoted as C)
- HRAS/KRAS (ratio of KD for GDP-bound HRAS wild-type to KD for KRAS) [2]: C (A compound having a KD ratio of 0.1 or more and less than 3 is denoted as C)

Structure (SMILES): CC[C@H](C)[C@@H]1NC(=O)[C@H](CC)N(C)C(=O)C[C@@H](C(=O)N(C)C)N(C)C(=O)[C@H](C2CCCC2)N(C)C(=O)C2(CCC2)N(C)C(=O)[C@@H]2C[C@@H](C)CN2C(=O)[C@H](CCc2cc(F)c(C(F)(F)F)c(F)c2)NC(=O)CN(C)C(=O)[C@H](Cc2ccc(C)cc2)N2CC/C=C\C[C@@H](C2=O)N(C)C(=O)CN(C)C1=O [PP1787]
- NRAS/KRAS (ratio of KD value for NRAS to KD value for KRAS) [1, 3]: A (a compound having 10 or more and less than 20 is denoted as A)
- HRAS/KRAS (ratio of KD value for HRAS to KD value for KRAS) [2, 4]: B (a compound having 3 or more and less than 10 is denoted as B)

Structure (SMILES): CCO[C@@H]1C[C@H]2C(=O)NC3(CCC3)C(=O)N(C)[C@@H](C3CCCC3)C(=O)N(C)[C@H](C(=O)N(C)C)CC(=O)N(C)[C@@H](CC(C)(C)C)C(=O)N[C@@H]([C@@H](C)CC)C(=O)N(C)CC(=O)N(C)[C@H]3C/C=C\CCN(C3=O)[C@@H](Cc3ccc(C(F)(F)F)cc3)C(=O)N(C)CC(=O)N[C@@H](CCc3cc(F)c(C(F)(F)F)c(F)c3)C(=O)N2C1 [PP1117]
- NRAS/KRAS (ratio of KD value with respect to NRAS to KD value with respect to KRAS) [1, 3]: A (a compound having 10 or more and less than 20 is denoted as A)
- HRAS/KRAS (ratio of KD value with respect to HRAS to KD value with respect to KRAS) [2, 4]: A (a compound having 10 or more and less than 20 is denoted as A)

Structure (SMILES): CCC[C@H]1C(=O)N[C@@H]([C@@H](C)CC)C(=O)N(CCC)CC(=O)N(C)[C@H]2C/C=C\CCN(C2=O)[C@@H](Cc2ccc(C)cc2)C(=O)N(C)CC(=O)N[C@@H](CCc2ccc(C(F)(F)F)c(OC)c2)C(=O)N2C[C@H](OCC)C[C@H]2C(=O)NC2(CC(C)(C)C2)C(=O)N(C)[C@@H](C2CCCC2)C(=O)N(C)[C@H](C(=O)N(C)C)CC(=O)N1C [PP2054]
- NRAS/KRAS (ratio of KD value with respect to NRAS to KD value with respect to KRAS) [1, 5]: A (a compound having 10 or more and less than 20 is denoted as A)
- HRAS/KRAS (ratio of KD value with respect to HRAS to KD value with respect to KRAS) [2, 6]: A (a compound having 10 or more and less than 20 is denoted as A)

Structure (SMILES): CC[C@H](C)[C@@H]1NC(=O)[C@H](CC(C)C)N(C)C(=O)C[C@@H](C(=O)N2CCOCC2)N(C)C(=O)[C@H](C2CCCC2)N(C)C(=O)C2(CCC2)NC(=O)[C@@H]2[C@@H](O)CCN2C(=O)[C@H](CCc2cc(F)c(C(F)(F)F)c(F)c2)NC(=O)CN(C)C(=O)[C@H](Cc2ccc(C(F)(F)F)cc2)N2CCCC[C@@H](C2=O)N(C)C(=O)CN(C)C1=O [PP0869]
- NRAS/KRAS (ratio of KD value with respect to NRAS to KD value with respect to KRAS) [1, 3]: B (a compound having 3 or more and less than 10 is denoted as B)
- HRAS/KRAS (ratio of KD value with respect to HRAS to KD value with respect to KRAS) [2, 4]: B (a compound having 3 or more and less than 10 is denoted as B)

Structure (SMILES): CCO[C@H](C)[C@@H]1NC(=O)[C@H](CC(C)C)N(C)C(=O)C[C@@H](C(=O)N(C)CC)N(C)C(=O)[C@H](C2CCCC2)N(C)C(=O)C2(CC(C)(C)C2)NC(=O)[C@@H]2C[C@H](C)CN2C(=O)[C@H](CCc2cc(F)c(C(F)(F)F)c(F)c2)NC(=O)CN(C)C(=O)[C@H](Cc2ccc(C)cc2)N2CC/C=C\C[C@@H](C2=O)N(C)C(=O)CN(C)C1=O [PP2414]
- NRAS/KRAS (ratio of KD value with respect to NRAS to KD value with respect to KRAS) [1, 5]: A (a compound having 10 or more and less than 20 is denoted as A)
- HRAS/KRAS (ratio of KD value with respect to HRAS to KD value with respect to KRAS) [2, 6]: A (a compound having 10 or more and less than 20 is denoted as A)

Structure (SMILES): CC[C@H](C)[C@@H]1NC(=O)[C@H](CC(C)C)N(C)C(=O)C[C@@H](C(=O)N(C)C)N(C)C(=O)[C@H](C2CCCC2)N(C)C(=O)C2(CCCC2)NC(=O)[C@@H]2C[C@@H](C)CN2C(=O)[C@H](CCc2cc(F)c(C(F)(F)F)c(F)c2)NC(=O)CN(C)C(=O)[C@H](Cc2ccc(C)cc2)N2CC/C=C\C[C@@H](C2=O)N(C)C(=O)CN(C)C1=O [PP2189]
- NRAS/KRAS (ratio of KD value with respect to NRAS to KD value with respect to KRAS) [1, 5]: A (a compound having 10 or more and less than 20 is denoted as A)
- HRAS/KRAS (ratio of KD value with respect to HRAS to KD value with respect to KRAS) [2, 6]: A (a compound having 10 or more and less than 20 is denoted as A)

Structure (SMILES): CCCN1C(=O)CN(C)C(=O)CN(C)C(=O)[C@H]([C@@H](C)CC)NC(=O)[C@H](CC(C)C)N(C)C(=O)C[C@@H](C(=O)N(C)C)NC(=O)[C@H](C2CCCC2)N(C)C(=O)C2(CCCC2)NC(=O)[C@@H]2CC(F)(F)CN2C(=O)[C@H](CCc2ccc(C(F)(F)F)c(Cl)c2)NC(=O)CN(C)C(=O)[C@@H]1Cc1ccc(C(F)(F)F)cc1 [PP0357] ([NMeL]I[Sar][Sar][NPrPhe(4-CF3)][Sar][hPhe(3-Cl-4-CF3)][Pro(4,4-F2)][Ac5c][NMeGly(cPent)]D-NMe2; lactam N-11)
- NRAS/KRAS (ratio of KD for GDP-bound NRAS wild-type to KD for KRAS) [1]: B (a compound having 3 or more and less than 10 is denoted as B)
- HRAS/KRAS (ratio of KD for GDP-bound HRAS wild-type to KD for KRAS) [2]: B (a compound having 3 or more and less than 10 is denoted as B)
